Assay results published in ChEMBL document CHEMBL1201862, “PubChem BioAssay data set” (2004).
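Interpolation was linear, between the two tested concentrations surrounding the appropriate level; five concentrations were tested over 48 hours in 96-well plates. Abbreviation: GI50, concentration required for 50% inhibition of growth.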 Activity calls are given as the source filed them. No stated cut-off is given here; in the data, active = GI50 up to about 1.1 µM and inactive = higher.

Assays:
Test in all cases: NCI anticancer screen, dose series, 48 h
KM12 = tested on: KM12
HCT-15 = tested on: HCT-15
SNB-19 = tested on: SNB-19
OVCAR-4 = tested on: OVCAR-4
MCF7 = tested on: MCF7
EKVX = tested on: EKVX
OVCAR-3 = tested on: OVCAR-3
COLO 205 = tested on: COLO 205
SF-295 = tested on: SF-295
MDA-MB-231 = tested on: MDA-MB-231
NCI-H522 = tested on: NCI-H522
MOLT-4 = tested on: MOLT-4
SF-268 = tested on: SF-268
HOP-92 = tested on: HOP-92
BT-549 = tested on: BT-549
Malme-3M = tested on: Malme-3M
T47D = tested on: T47D
RXF 393 = tested on: RXF 393
PC-3 = tested on: PC-3
IGROV-1 = tested on: IGROV-1

O=C1C(Cl)=CC2(C=C1Cl)CCNC1=C2C(=O)c2nc[nH]c2C1=O
GI50 (KM12): 43.4 µM (inactive)
GI50 (HCT-15): 46 µM
GI50 (SNB-19): 32.3 µM (inactive)
GI50 (OVCAR-4): 58.7 µM (inactive)
GI50 (MCF7): 22.3 µM (inactive)
GI50 (EKVX): 51.8 µM (inactive)
GI50 (OVCAR-3): 32.3 µM (inactive)
GI50 (COLO 205): 22.9 µM (inactive)
GI50 (SF-295): > 100 µM (inactive)
GI50 (MDA-MB-231): 35.6 µM (inactive)
GI50 (NCI-H522): 21.1 µM (inactive)
GI50 (MOLT-4): 26.9 µM (inactive)
GI50 (SF-268): 54.6 µM (inactive)
GI50 (HOP-92): 42.4 µM (inactive)
GI50 (BT-549): 26.3 µM (inactive)
GI50 (Malme-3M): 24.3 µM (inactive)
GI50 (T47D): 99.8 µM (inactive)
GI50 (RXF 393): 23.2 µM (inactive)
GI50 (PC-3): 35.3 µM (inactive)
GI50 (IGROV-1): 47.1 µM (inactive)

C=C1C(=O)O[C@@H]2[C@@H]3O[C@@H](C[C@@H]13)[C@](C)(O)CC/C=C(\C)CCC[C@@H]2C
GI50 (KM12): 16.3 µM (inactive)
GI50 (HCT-15): 11.6 µM
GI50 (SNB-19): 15.1 µM (inactive)
GI50 (OVCAR-4): 14.5 µM (inactive)
GI50 (MCF7): 7.48 µM (inactive)
GI50 (EKVX): 15 µM (inactive)
GI50 (OVCAR-3): 12.5 µM (inactive)
GI50 (COLO 205): 14.7 µM (inactive)
GI50 (SF-295): 26.4 µM (inactive)
GI50 (MDA-MB-231): 16.6 µM (inactive)
GI50 (NCI-H522): 5.87 µM (inactive)
GI50 (MOLT-4): 3.35 µM (inactive)
GI50 (SF-268): 16.9 µM (inactive)
GI50 (HOP-92): 13.2 µM (inactive)
GI50 (BT-549): 12.6 µM (inactive)
GI50 (Malme-3M): 13.3 µM (inactive)
GI50 (T47D): 18.7 µM (inactive)
GI50 (RXF 393): 13.6 µM (inactive)
GI50 (PC-3): 10.4 µM (inactive)
GI50 (IGROV-1): 10.2 µM (inactive)

COc1ccc(-c2nc(N)n(C)c2SSc2c(-c3ccc(OC)cc3)nc(N)n2C)cc1
GI50 (KM12): 12.9 µM (inactive)
GI50 (HCT-15): 3.04 µM
GI50 (SNB-19): 12.9 µM (inactive)
GI50 (OVCAR-4): 6.59 µM (inactive)
GI50 (MCF7): 8.51 µM (inactive)
GI50 (EKVX): 20.8 µM (inactive)
GI50 (OVCAR-3): 7.23 µM (inactive)
GI50 (COLO 205): 2.19 µM (inactive)
GI50 (SF-295): 11.6 µM (inactive)
GI50 (MDA-MB-231): 6.78 µM (inactive)
GI50 (NCI-H522): 1.81 µM (inactive)
GI50 (MOLT-4): 2.13 µM (inactive)
GI50 (SF-268): 12.6 µM (inactive)
GI50 (HOP-92): 2.28 µM (inactive)
GI50 (BT-549): 2.32 µM (inactive)
GI50 (Malme-3M): 9.42 µM (inactive)
GI50 (T47D): 1.86 µM (inactive)
GI50 (RXF 393): 2.74 µM (inactive)
GI50 (PC-3): 6.34 µM (inactive)
GI50 (IGROV-1): 14.3 µM (inactive)

CC(=O)OC(CC(C)C)P1(=O)N(CC(C)(C)C)[C@@H]2CCCC[C@H]2N1CC(C)(C)C (stereo not given in full)
GI50 (KM12): 9.66 µM (inactive)
GI50 (HCT-15): 9.82 µM
GI50 (SNB-19): 9.29 µM (inactive)
GI50 (OVCAR-4): 9.42 µM (inactive)
GI50 (MCF7): 6.35 µM (inactive)
GI50 (EKVX): 11.2 µM (inactive)
GI50 (OVCAR-3): 9.23 µM (inactive)
GI50 (COLO 205): 6 µM (inactive)
GI50 (SF-295): 7.5 µM (inactive)
GI50 (MDA-MB-231): 7.24 µM (inactive)
GI50 (NCI-H522): 6.4 µM (inactive)
GI50 (MOLT-4): 9.62 µM (inactive)
GI50 (SF-268): 15.1 µM (inactive)
GI50 (HOP-92): 2.58 µM (inactive)
GI50 (BT-549): 15.5 µM (inactive)
GI50 (Malme-3M): 9.33 µM (inactive)
GI50 (T47D): 5.36 µM (inactive)
GI50 (RXF 393): 6.38 µM (inactive)
GI50 (PC-3): 3.73 µM (inactive)
GI50 (IGROV-1): 11.7 µM (inactive)

CC1(C)OC2[C@@H](CO[C@@]3([C@H]4OC(C)(C)O[C@@H]4CO)OC(C)(C)O[C@@H]23)O1 (stereo not given in full)
GI50 (KM12): > 100 µM (inactive)
GI50 (HCT-15): > 100 µM
GI50 (SNB-19): > 100 µM (inactive)
GI50 (OVCAR-4): > 100 µM (inactive)
GI50 (MCF7): > 100 µM (inactive)
GI50 (EKVX): > 100 µM (inactive)
GI50 (OVCAR-3): > 100 µM (inactive)
GI50 (COLO 205): > 100 µM (inactive)
GI50 (SF-295): > 100 µM (inactive)
GI50 (MDA-MB-231): > 100 µM (inactive)
GI50 (NCI-H522): > 100 µM (inactive)
GI50 (MOLT-4): > 100 µM (inactive)
GI50 (SF-268): > 100 µM (inactive)
GI50 (HOP-92): > 100 µM (inactive)
GI50 (BT-549): > 100 µM (inactive)
GI50 (Malme-3M): > 100 µM (inactive)
GI50 (T47D): > 100 µM (inactive)
GI50 (RXF 393): > 100 µM (inactive)
GI50 (PC-3): > 100 µM (inactive)
GI50 (IGROV-1): > 100 µM (inactive)

COc1ccc(-c2cc(-c3ccccc3)n(C3OCC(OC(C)=O)C(OC(C)=O)C3OC(C)=O)c(=S)c2C#N)cc1 (stereo not given)
GI50 (KM12): 85.3 µM (inactive)
GI50 (HCT-15): > 100 µM
GI50 (SNB-19): > 100 µM (inactive)
GI50 (OVCAR-4): > 100 µM (inactive)
GI50 (MCF7): > 100 µM (inactive)
GI50 (EKVX): > 100 µM (inactive)
GI50 (OVCAR-3): > 100 µM (inactive)
GI50 (COLO 205): > 100 µM (inactive)
GI50 (SF-295): 56.4 µM (inactive)
GI50 (MDA-MB-231): > 100 µM (inactive)
GI50 (NCI-H522): 66.5 µM (inactive)
GI50 (MOLT-4): > 100 µM (inactive)
GI50 (SF-268): > 100 µM (inactive)
GI50 (HOP-92): 16 µM (inactive)
GI50 (BT-549): > 100 µM (inactive)
GI50 (Malme-3M): > 100 µM (inactive)
GI50 (T47D): 78.7 µM (inactive)
GI50 (RXF 393): 37.5 µM (inactive)
GI50 (PC-3): > 100 µM (inactive)
GI50 (IGROV-1): > 100 µM (inactive)

CC(C)(CO)CNc1cc(=O)[nH]c(N)n1
GI50 (KM12): > 100 µM (inactive)
GI50 (HCT-15): > 100 µM
GI50 (SNB-19): > 100 µM (inactive)
GI50 (OVCAR-4): > 100 µM (inactive)
GI50 (MCF7): > 100 µM (inactive)
GI50 (EKVX): > 100 µM (inactive)
GI50 (OVCAR-3): > 100 µM (inactive)
GI50 (COLO 205): > 100 µM (inactive)
GI50 (SF-295): > 100 µM (inactive)
GI50 (MDA-MB-231): > 100 µM (inactive)
GI50 (NCI-H522): > 100 µM (inactive)
GI50 (MOLT-4): > 100 µM (inactive)
GI50 (SF-268): > 100 µM (inactive)
GI50 (HOP-92): > 100 µM (inactive)
GI50 (BT-549): > 100 µM (inactive)
GI50 (Malme-3M): > 100 µM (inactive)
GI50 (T47D): > 100 µM (inactive)
GI50 (RXF 393): > 100 µM (inactive)
GI50 (PC-3): > 100 µM (inactive)
GI50 (IGROV-1): > 100 µM (inactive)

COC(=O)/C(=C(/C)c1ccco1)P(=O)(OC)OC
GI50 (KM12): > 100 µM (inactive)
GI50 (HCT-15): > 100 µM
GI50 (SNB-19): > 100 µM (inactive)
GI50 (OVCAR-4): > 100 µM (inactive)
GI50 (MCF7): > 100 µM (inactive)
GI50 (EKVX): > 100 µM (inactive)
GI50 (OVCAR-3): > 100 µM (inactive)
GI50 (COLO 205): > 100 µM (inactive)
GI50 (SF-295): > 100 µM (inactive)
GI50 (MDA-MB-231): > 100 µM (inactive)
GI50 (NCI-H522): > 100 µM (inactive)
GI50 (MOLT-4): > 100 µM (inactive)
GI50 (SF-268): > 100 µM (inactive)
GI50 (HOP-92): > 100 µM (inactive)
GI50 (BT-549): > 100 µM (inactive)
GI50 (Malme-3M): > 100 µM (inactive)
GI50 (T47D): > 100 µM (inactive)
GI50 (RXF 393): > 100 µM (inactive)
GI50 (PC-3): > 100 µM (inactive)
GI50 (IGROV-1): > 100 µM (inactive)

N=C(N)SCc1cc(Cl)cc(Cl)c1O
GI50 (KM12): 18.4 µM (inactive)
GI50 (HCT-15): 20.1 µM
GI50 (SNB-19): 18.2 µM (inactive)
GI50 (OVCAR-4): 23.3 µM (inactive)
GI50 (MCF7): 25.2 µM (inactive)
GI50 (EKVX): 15.2 µM (inactive)
GI50 (OVCAR-3): 17.2 µM (inactive)
GI50 (COLO 205): 17.7 µM (inactive)
GI50 (SF-295): 25.5 µM (inactive)
GI50 (MDA-MB-231): 15.1 µM (inactive)
GI50 (NCI-H522): 15.9 µM (inactive)
GI50 (MOLT-4): 24.4 µM (inactive)
GI50 (SF-268): 21.8 µM (inactive)
GI50 (HOP-92): 15.7 µM (inactive)
GI50 (BT-549): 18.7 µM (inactive)
GI50 (Malme-3M): 21.6 µM (inactive)
GI50 (T47D): 20.9 µM (inactive)
GI50 (RXF 393): 19.9 µM (inactive)
GI50 (PC-3): 19.3 µM (inactive)
GI50 (IGROV-1): 18.5 µM (inactive)

COC(=O)C(O)P(=O)(OC)OC (stereo not given)
GI50 (KM12): > 100 µM (inactive)
GI50 (HCT-15): > 100 µM
GI50 (SNB-19): > 100 µM (inactive)
GI50 (OVCAR-4): > 100 µM (inactive)
GI50 (MCF7): > 100 µM (inactive)
GI50 (EKVX): > 100 µM (inactive)
GI50 (OVCAR-3): > 100 µM (inactive)
GI50 (COLO 205): > 100 µM (inactive)
GI50 (SF-295): > 100 µM (inactive)
GI50 (MDA-MB-231): > 100 µM (inactive)
GI50 (NCI-H522): > 100 µM (inactive)
GI50 (MOLT-4): > 100 µM (inactive)
GI50 (SF-268): > 100 µM (inactive)
GI50 (HOP-92): > 100 µM (inactive)
GI50 (BT-549): > 100 µM (inactive)
GI50 (Malme-3M): > 100 µM (inactive)
GI50 (T47D): > 100 µM (inactive)
GI50 (RXF 393): > 100 µM (inactive)
GI50 (PC-3): > 100 µM (inactive)
GI50 (IGROV-1): > 100 µM (inactive)
